Test results published in paper PMC5584980, “Deciphering HLA-I motifs across HLA peptidomes improves neo-antigen predictions and identifies allostery regulating HLA specificity” (PLoS Computational Biology, 2017).

Test system: HLA-B14:02 wt
Experiment: Binding stability assay, refolded HLA-I/peptide complex, ELISA
Design: species or system human
Description: W97R mutation was introduced into HLA-B14:02 wt by overlap extension PCR and confirmed by DNA sequencing. BL21(DE3)pLys bacterial cells were used to produce HLA-B14:02 wt and W97R as inclusion bodies. Four peptides with histidine or arginine at P2 (A[H/R]TKPRPAL, G[H/R]YDRSKSL, A[H/R]FAKSISL, H[H/R]FEKAVTL) were synthesized at the Peptide Facility (UNIL, Lausanne) with free N and C-termini (1mg of each peptide, > 80% purity). Peptides with histidine at P2 come from our HLA peptidomics data and were assigned to HLA-B15:18 by our mixture model algorithm. Based on our analysis of HLA sequence and structure, peptides with histidine at P2 are predicted to interact with HLA-B14:02 W97R, while peptides with arginine at P2 are predicted to bind better HLA-B14:02 wt.
Synthetic peptides were incubated separately with denaturated […] mutant refolded by dilution in the presence of biotinylated beta-2 microglobulin proteins at temperature T = 4°C for 48 hours. […] Negative controls consist of absence of peptides. koff were determined by fitting exponential curves to the light intensity values obtained by ELISA at different time points. […] For two peptides showing exceptionally high binding stability, only lower bounds on half-lives could be determined (dashed lines in Fig 5D).

AHTKPRPAL [synthetic HLA-B15:18 ligand from HLA peptidomics data, histidine at P2, free N and C-termini]
binding of the peptide: fully abolished
